The target in the experiment is T1, BTK (Homo sapiens, UniProt Q06187).
T1 construct: endogenous in cells; host or cells: Ramos (ATCC CRL-1596)
T1 sequence (Q06187 whole entry): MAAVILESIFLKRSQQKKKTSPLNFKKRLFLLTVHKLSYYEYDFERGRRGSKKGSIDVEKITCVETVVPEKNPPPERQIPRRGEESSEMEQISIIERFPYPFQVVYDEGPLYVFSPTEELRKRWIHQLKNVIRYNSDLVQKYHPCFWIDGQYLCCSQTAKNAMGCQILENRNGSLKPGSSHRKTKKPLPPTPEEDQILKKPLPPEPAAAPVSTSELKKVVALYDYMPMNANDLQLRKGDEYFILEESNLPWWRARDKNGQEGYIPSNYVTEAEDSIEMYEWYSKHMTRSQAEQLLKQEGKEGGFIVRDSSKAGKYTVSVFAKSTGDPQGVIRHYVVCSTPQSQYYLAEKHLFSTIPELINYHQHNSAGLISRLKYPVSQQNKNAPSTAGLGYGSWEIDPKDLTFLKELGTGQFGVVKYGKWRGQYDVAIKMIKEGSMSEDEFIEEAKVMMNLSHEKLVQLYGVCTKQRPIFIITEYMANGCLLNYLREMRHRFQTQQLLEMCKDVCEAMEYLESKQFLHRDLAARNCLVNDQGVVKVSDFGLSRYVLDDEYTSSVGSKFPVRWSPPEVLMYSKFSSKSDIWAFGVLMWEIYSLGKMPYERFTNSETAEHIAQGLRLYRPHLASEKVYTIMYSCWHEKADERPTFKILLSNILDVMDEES
The experiment is described as follows: Cellular BTK HTRF Assay (BTK degradation in Ramos cells). In kind it is cell-based. As to conditions: four hours incubation, 37° C., BTK levels relative to DMSO-treated cells. The method, then:
Ramos (CRL-1596) cells were obtained from American Type Culture Collection and were grown in RPMI-1640 media (ATCC, 30-2001) supplemented with 10% heat-inactivated FBS (Corning Premium Fetal Bovine Serum from Fisher, MT35015CV).
Compounds of the present invention were added to 50,000 Ramos cells in round-bottom 96 well plates with a final DMSO concentration of […] and were incubated at 37° C., 5% CO2 for four hours. BTK levels were determined using Cisbio Total-BTK HTRF ([…] Time-Resolved Fluorescence) kit (63ADK064PEG) according to manufacturer's protocol. Briefly, cells were incubated in 1× supplied lysis buffer for 30 minutes. In an opaque white low volume 96 well plate (Cisbio, 66PL96005), cell lysate was combined with two different specific BTK antibodies, one conjugated with Eu^3+-Cryptate FRET donor and one conjugated with d2 FRET acceptor. Assay controls include wells containing cell lysate with only the Eu^3+-Cryptate FRET donor antibody and wells containing both HTRF antibodies and lysis buffer without cells or control lysate provided by Cisbio. HTRF ratio was calculated as (acceptor signal at 665 nm/donor signal at 620 nm)×10^4. Background HTRF levels were determined from the control well containing the donor, but no acceptor, antibody. Background HTRF levels were subtracted from all samples. Readouts were reported as HTRF levels relative to HTRF levels of DMSO-treated cells. Four-parameter non-linear regressions were performed in GraphPad Prism 7.02 to obtain DC50 values. DC50 values are provided in Table 3, wherein A<7.5 nM, 7.5 nM≤B≤50 nM, and 50 nM<C<500 nM.
In general terms: TR-FRET usually uses a lanthanide donor and a delayed reading to cut background.
As a reminder, the DC50 is the midpoint of the concentration-degradation curve. Turning to `CS(=O)(=O)c1ccc(Nc2nc(N3CCC[C@@H](NC(=O)N4CCC5(CC4)CN(Cc4ccc6c(c4)C(=O)N(C4CCC(=O)NC4=O)C6=O)C5)C3)cnc2C(N)=O)cc1` (stereo partly drawn) [Compound 29, N-[(3R)-1-{5-carbamoyl-6-[(4-methanesulfonylphenyl)amino]pyrazin-2-yl}piperidin-3-yl]-2-{[2-(2,6-dioxopiperidin-3-yl)-1,3-dioxoisoindol-5-yl]methyl}-2,7-diazaspiro[3.5]nonane-7-carboxamide], the DC50 is below 7.5 nM.

`CS(=O)(=O)c1ccc(Nc2nc(N3CCC[C@@H](NC(=O)C4CCN(C5CCN(c6ccc7c(c6)C(=O)N(C6CCC(=O)NC6=O)C7=O)CC5)CC4)C3)cnc2C(N)=O)cc1` (stereo partly drawn) [Compound 40, N—((R)-1-(5-carbamoyl-6-((4-(methylsulfonyl)phenyl)amino)pyrazin-2-yl)piperidin-3-yl)-1′-(2-(2,6-dioxopiperidin-3-yl)-1,3-dioxoisoindolin-5-yl)-[1,4′-bipiperidine]-4-carboxamide] yielded a DC50 of 50 to 500 nM. Next, `CS(=O)(=O)c1ccc(Nc2nc(N3CCC[C@@H](NC(=O)OCCCCCOc4ccc5c(c4)C(=O)N(C4CCC(=O)NC4=O)C5=O)C3)cnc2C(N)=O)cc1` (stereo partly drawn) [Compound 2, 5-((2-(2,6-dioxopiperidin-3-yl)-1,3-dioxoisoindolin-5-yl)oxy)pentyl ((R)-1-(5-carbamoyl-6-((4-(methylsulfonyl)phenyl)amino)pyrazin-2-yl)piperidin-3-yl)carbamate]: 7.5 to 50 nM; `Cc1cc(Nc2nc(N3CCC[C@@H](NC(=O)C4CCN(CC5CN(c6ccc7c(c6)C(=O)N(C6CCC(=O)NC6=O)C7=O)C5)C4)C3)cnc2C(N)=O)sn1` (stereo partly drawn) [Compound 16, 5-[(3R)-3-[1-({1-[2-(2,6-dioxopiperidin-3-yl)-1,3-dioxoisoindol-5-yl]azetidin-3-yl}methyl)pyrrolidine-3-amido]piperidin-1-yl]-3-[(3-methyl-1,2-thiazol-5-yl)amino]pyrazine-2-carboxamide]: below 7.5 nM.

Regarding `Cn1cc(Nc2nc(N3CCC[C@@H](N4CCC5(CCN(C6CCN(c7ccc8c(c7)C(=O)N(C7CCC(=O)NC7=O)C8=O)CC6)CC5)C4=O)C3)cnc2C(N)=O)cn1` (stereo partly drawn) [Compound 49, 5-[(3R)-3-(8-{1-[2-(2,6-dioxopiperidin-3-yl)-1,3-dioxoisoindol-5-yl]piperidin-4-yl}-1-oxo-2,8-diazaspiro[4.5]decan-2-yl)piperidin-1-yl]-3-[(1-methylpyrazol-4-yl)amino]pyrazine-2-carboxamide], the DC50 was below 7.5 nM.

Compound `CS(=O)(=O)c1ccc(Nc2nc(N3CCC[C@@H](NC(=O)[C@H]4CCN(CC5CCN(c6ccc7c(c6)C(=O)N(C6CCC(=O)NC6=O)C7=O)CC5)C4)C3)cnc2C(N)=O)cc1` (stereo partly drawn) [Compound 46, 5-[(3R)-3-[1-({1-[2-(2,6-dioxopiperidin-3-yl)-1,3-dioxoisoindol-5-yl]piperidin-4-yl}methyl)pyrrolidine-3-amido]piperidin-1-yl]-3-[(4-methanesulfonylphenyl)amino]pyrazine-2-carboxamide] yielded a DC50 of 7.5 to 50 nM. The compound `CS(=O)(=O)c1ccc(Nc2nc(N3CCC[C@@H](NC(=O)[C@H]4[C@@H]5CN(C6CCN(c7ccc8c(c7)C(=O)N(C7CCC(=O)NC7=O)C8=O)CC6)C[C@@H]54)C3)cnc2C(N)=O)cc1` (stereo partly drawn) [Compound 35, (1R,5S,6r)-N—((R)-1-(5-carbamoyl-6-((4-(methylsulfonyl)phenyl)amino)pyrazin-2-yl)piperidin-3-yl)-3-(1-(2-(2,6-dioxopiperidin-3-yl)-1,3-dioxoisoindolin-5-yl)piperidin-4-yl)-3-azabicyclo[3.1.0]hexane-6-carboxamide] registered a DC50 of 7.5 to 50 nM. With `Cc1cc(Nc2nc(N3CCC[C@@H](NC(=O)C4CCN(CC5CCN(c6ccc7c(c6)C(=O)N(C6CCC(=O)NC6=O)C7=O)CC5)C4)C3)cnc2C(N)=O)sn1` (stereo partly drawn) [Compound 15, 5-[(3R)-3-[1-({1-[2-(2,6-dioxopiperidin-3-yl)-1,3-dioxoisoindol-5-yl]piperidin-4-yl}methyl)pyrrolidine-3-amido]piperidin-1-yl]-3-[(3-methyl-1,2-thiazol-5-yl)amino]pyrazine-2-carboxamide] the figure was below 7.5 nM.

Take `CS(=O)(=O)c1ccc(Nc2nc(N3CCC[C@@H](NC(=O)C4CC5(C4)CN(Cc4ccc6c(c4)C(=O)N(C4CCC(=O)NC4=O)C6=O)C5)C3)cnc2C(N)=O)cc1` (stereo partly drawn) [Compound 32, N—((R)-1-(5-carbamoyl-6-((4-(methylsulfonyl)phenyl)amino)pyrazin-2-yl)piperidin-3-yl)-2-((2-(2,6-dioxopiperidin-3-yl)-1,3-dioxoisoindolin-5-yl)methyl)-2-azaspiro[3.3]heptane-6-carboxamide]: the half-maximal degradation concentration (DC50) was 7.5 to 50 nM. `CS(=O)(=O)c1ccc(Nc2nc(N3CCC[C@@H](NC(=O)OCC4CCN(c5ccc6c(c5)C(=O)N(C5CCC(=O)NC5=O)C6=O)CC4)C3)cnc2C(N)=O)cc1` (stereo partly drawn) [Compound 8, (1-(2-(2,6-dioxopiperidin-3-yl)-1,3-dioxoisoindolin-5-yl)piperidin-4-yl)methyl ((R)-1-(5-carbamoyl-6-((4-(methylsulfonyl)phenyl)amino)pyrazin-2-yl)piperidin-3-yl)carbamate] yielded a DC50 of 7.5 to 50 nM. Consider `Cc1cc(Nc2nc(N3CCC[C@@H](NC(=O)OCCC4CCN(c5ccc6c(c5)C(=O)N(C5CCC(=O)NC5=O)C6=O)CC4)C3)cnc2C(N)=O)sn1` (stereo partly drawn) [Compound 7, 2-(1-(2-(2,6-dioxopiperidin-3-yl)-1,3-dioxoisoindolin-5-yl)piperidin-4-yl)ethyl ((R)-1-(5-carbamoyl-6-((3-methylisothiazol-5-yl)amino)pyrazin-2-yl)piperidin-3-yl)carbamate], for which the DC50 lay within 50 to 500 nM.

As for `CS(=O)(=O)c1ccc(Nc2nc(N3CCC[C@@H](NC(=O)N4CCC5(CCN(c6ccc7c(c6)C(=O)N(C6CCC(=O)NC6=O)C7=O)CC5)C4)C3)cnc2C(N)=O)cc1` (stereo partly drawn) [Compound 10, N—((R)-1-(5-carbamoyl-6-((4-(methylsulfonyl)phenyl)amino)pyrazine-2-yl)piperidin-3-yl)-8-(2-(2,6-dioxopiperidin-3-yl)-1,3-dioxoisoindolin-5-yl)-2,8-diazaspiro[4.5]decane-2-carboxamide], the DC50 lay within 7.5 to 50 nM. Next, `Cn1cc(Nc2nc(N3CCC[C@@H](N4CC5(CN(CC6CN(c7ccc8c(c7)C(=O)N(C7CCC(=O)NC7=O)C8=O)C6)C5)OC4=O)C3)cnc2C(N)=O)cn1` (stereo partly drawn) [Compound 42, 5-((3R)-3-(2-((1-(2-(2,6-dioxopiperidin-3-yl)-1,3-dioxoisoindolin-5-yl)azetidin-3-yl)methyl)-6-oxo-5-oxa-2,7-diazaspiro[3.4]octan-7-yl)piperidin-1-yl)-3-((1-methyl-1H-pyrazol-4-yl)amino)pyrazine-2-carboxamide]: below 7.5 nM.

Values taken from patent US12582722B2, “Bifunctional compounds for degrading BTK via ubiquitin proteosome pathway” (NURIX THERAPEUTICS, INC., priority 2019, dated 2026).
